Measurements from publication PMC9112550, “Optimization of the antimicrobial peptide Bac7 by deep mutational scanning” (BMC Biology, 2022).

System: E. coli TOP10
Assay: Single-strain growth experiments, intracellular peptide expression
Assay type: cell-based
Details: negative control, expressed in E. coli TOP10
Experimental: To assess the antimicrobial activity of single peptides when expressed intracellularly in E. coli TOP10, a monoclonal strain carrying the pBAD plasmid containing a single peptide gene was picked from solid media, incubated overnight, and inoculated into a fresh LB medium containing 0.3% (w/v) L-arabinose to a final OD of 0.01 into 96-well microtiter plate (Greiner). Growth of strains was recorded by measuring OD in a Tecan Infinite 200 PRO (Tecan, Männedorf, CH) for at least 4 h (37°C, 1.5 mm orbital shaking).

Substance: HNP-1: inactive peptide HNP-1 expressed as the negative control
- activity on intracellular expression: inactive
